Results: article PMC10846744, “Cathelicidin peptide analogues inhibit EV71 infection through blocking viral entry and uncoating” (PLOS Pathogens, 2024)

What was measured:
EV71 virions = assay: Viral particle stability thermal release assay (PaSTRY); design: species or system enterovirus 71 (EV71); conditions: EV71 MOI = 10 pre-incubated with LL-18 or NaCl, SYBR green II, heated 25°C to 80°C; PBS control around 45°C
Procedure: Fig 6 LL-18 stabilizes the viral particles by inhibiting uncoating. (A) EV71 virus (MOI = 10) was pre-incubated with PBS, indicated amount of LL-18 or NaCl for 1 hr and then mixed with SYBR green dyes II before they were heated to indicated temperatures. The fluorescent signals were measured and plotted against temperature. PBS was used as a negative control. (B) EV71 virus (MOI = 10) was pre-incubated with PBS, LL-18, or 12s for 2 hrs. Half of the samples were then treated with 1.5 μg SCARB2 protein and incubated at 37°C for 2 hrs at pH 5.5. Samples were then subjected to ultracentrifugation as detailed in materials and methods. The numbers above represent the fractions collected from top to bottom.
EV71 viruses were preincubated with either PBS, NaCl or the indicated amount of LL-18 at room temperature for 2 hrs, before Sybr green II dye (3× working concentration, Solarbio, China) and RNase inhibitor (1 U/μL, Thermo Scientific) were added. The mixture was heated from 25°C to 80°C with an increment of 0.5°C for 30 seconds, and the fluorescence from SYBR green was monitored with a QuantGene 9600 real-time PCR system (Bioer, China).

EV71 virus [1] = assay: 1H NMR titration of peptide with EV71 virus; assay type: binding, enterovirus 71 (EV71); conditions: molar ratio peptide to virus 90:1, 800 MHz, 298k
Procedure: (§1) The NMR titrations were performed on a Bruker 800 MHz (Avance NEO) spectrometer equipped with cryo-probe. The molar ratio of the peptide to the virus was 90:1. The experiments were recorded using zgespg pulse for 128 scans at 298k and the results were analyzed by Topspin.

EV71 virus [2] = assay: EV71 infection inhibition on RD cells (VP1 immunoblot, viral titer, cell viability/CPE); assay type: cell-based, enterovirus 71 (EV71); conditions: RD cells; for inhibition of EV71 infection at 0.3, 0.9, or 1.5 μM / inhibition of EV71 infection at higher concentration: cell viability or viral titer 24 h.p.i; for inhibition of EV71 infection at 0.3, 0.9, or 1.5 μM: 0.3, 0.9, or 1.5 μM peptide; for inhibition of EV71 infection at higher concentration: much higher concentration than 1.5 μM
Procedure: Synthetic peptides were purchased from Bioyears Co. Ltd. (Wuhan, China) with purity of more than 95% and dissolved in PBS. To test their inhibitory effects, the EV71 virus (MOI = 1) was incubated with the indicated amount of peptide at room temperature for 1 hr before the mixture was added to RD cells and maintained throughout the experiment. Cell viability, viral titer, or viral protein expression was determined 24 h.p.i. For the time-of-addition experiment, viruses were either pre-incubated with peptides (for the -2 and -1 time points), the mixture was added to the cells simultaneously (for 0 time point), or peptides were added after virus infection (for 1, 2, 4 and 7 h time points) and the virus/peptide was maintained in the culture before cell viability, viral titer, or viral protein expression was determined 24 h.p.i. The TCID50 of the virus was calculated according to the Reed-Muench method.
Cells were treated as described and harvested with LDS sample buffer (Thermo Fisher Scientific). After denaturation, samples were separated on 10% SDS-PAGE gel and then transferred to a polyvinylidene fluoride (PVDF) membrane. The proteins were blocked using 5% skimmed milk and probed with the corresponding antibodies. The following antibodies were used in this study: EV71 VP1 polyclonal antibody (GeneTex, Taiwan, China), β-Actin antibody (Zen BioScience, Chengdu, China), pan-Enterovirus Monoclonal antibody (Thermo Fisher Scientific). The chemiluminescence signals were visualized using ECL Advance reagents (Mishubio, China), and the images were acquired using the FUSION Solo S Imaging System (VILBER, France).
(§2) Cell viability assays were carried out using the Cell Titer-Glo Luminescent Cell Viability Assay Kit (Promega, Madison, WI) following the manufacturer’s instructions. Luminescence signals were measured using a BioTek Neo2 microplate reader.
For crystal violet staining, cells treated as indicated were first washed once with PBS, followed by fixation with 4% PFA. Cells were then stained with 0.5% crystal violet for 2 hrs before they were extensively washed with water.

RD cells = assay: Cytotoxicity of peptides on RD cells (Cell Titer-Glo); assay type: cell-based, human; conditions: cell viability plotted against peptide concentration, Cell Titer-Glo (S1A-S1D Fig)
Procedure: To test whether Cathelicidin peptide (LL-37) and its analogues could inhibit enterovirus infection, we conducted viral infection inhibition test on RD cells, which are one of the most commonly used cells for enterovirus propagation. We first assessed the cytotoxicity of LL-37, LL-18, FF-18, and a short form of LL-37 (DL-37) (Fig 1A), and all the peptides tested have a CC50 over 50 μM (S1A–S1D Fig). We then chose lower concentrations to test their antiviral activity. […] In addition, EV71 infection could cause cytopathic effect (CPE) on RD cells, and peptide could rescue EV71-induced cell death as assayed by crystal violet staining (Fig 1E) or cellular ATP content measurement (Fig 1F).
as §2
(A-D) Cell viability of RD cells treated with the indicated amount of DL-37 (A), LL-37 (B), LL-18 (C), or FF-18 (D) was plotted against peptide concentration, and the cytotoxicity was determined. (E) EV71 virus pre-incubated with indicated amounts of DL-37, and the cell viability was determined 24 h.p.i. ***, P<0.001. (F-G) CVB5 (F) or Echo7 (G) virus pre-incubated with 0.3, 0.9, or 1.5 μM of peptides were used to infect RD cells. Cell viability was determined 24 h.p.i. ***, P<0.001. (H-I) CVB5 (H) or Echo7 (I) virus pre-incubated with 3, 6, or 12 μM of peptides were used to infect RD cells. Cell viability was determined 24 h.p.i. ***, P<0.001. (TIF) Click here for additional data file.

CVB5 virus = assay: 1H NMR titration of peptide with CVB5 virus; assay type: binding, coxsackievirus B5; conditions: molar ratio peptide to virus 90:1, 800 MHz, 298k
Procedure: as §1

| SMILES | temperature of peak SYBR green fluorescence intensity (RNA release) (EV71 virions) | interaction of peptide with EV71 virus by 1H 1D NMR (amide region) (EV71 virus [1]) | inhibition of EV71 infection at 0.3, 0.9, or 1.5 μM (EV71 virus [2]) | inhibition of EV71 infection at higher concentration (EV71 virus [2]) | CC50 (RD cells) | interaction of peptide with CVB5 virus by 1H 1D NMR (amide region) (CVB5 virus) | inhibition of EV71 infection (overall conclusion) (EV71 virus [2]; VP1 expression, viral titer, crystal violet and Cell Titer Glo 24 h.p.i) |
| --- | --- | --- | --- | --- | --- | --- | --- |
| [Cl-].[Na+] [NaCl, reference compound] | 55 °C |  |  |  |  |  |  |
| CC[C@H](C)[C@H](NC(=O)[C@H](CCCCN)NC(=O)[C@H](CCC(=O)O)NC(=O)[C@H](CCCCN)NC(=O)[C@H](CO)NC(=O)[C@H](CCCCN)NC(=O)[C@H](CCCNC(=N)N)NC(=O)[C@H](Cc1ccccc1)NC(=O)[C@H](Cc1ccccc1)NC(=O)[C@H](CC(=O)O)NC(=O)CNC(=O)[C@H](CC(C)C)NC(=O)[C@@H](N)CC(C)C)C(=O)NCC(=O)N[C@@H](CCCCN)C(=O)N[C@@H](CCC(=O)O)C(=O)N[C@@H](Cc1ccccc1)C(=O)N[C@@H](CCCCN)C(=O)N[C@@H](CCCNC(=N)N)C(=O)N[C@H](C(=O)N[C@H](C(=O)N[C@@H](CCC(N)=O)C(=O)N[C@@H](CCCNC(=N)N)C(=O)N[C@H](C(=O)N[C@@H](CCCCN)C(=O)N[C@@H](CC(=O)O)C(=O)N[C@@H](Cc1ccccc1)C(=O)N[C@@H](CC(C)C)C(=O)N[C@@H](CCCNC(=N)N)C(=O)N[C@@H](CC(N)=O)C(=O)N[C@@H](CC(C)C)C(=O)N[C@H](C(=O)N1CCC[C@H]1C(=O)N[C@@H](CCCNC(=N)N)C(=O)N[C@H](C(=O)N[C@@H](CCC(=O)O)C(=O)N[C@@H](CO)C(=O)O)[C@@H](C)O)C(C)C)[C@@H](C)CC)C(C)C)[C@@H](C)CC [LL-37, reference compound] |  | no interaction between the peptide and viruses | could not inhibit EV71 infection | only showed inhibition at a much higher concentration | over 50 μM | no interaction between the peptide and viruses |  |
| CC[C@H](C)[C@H](NC(=O)[C@H](CCCCN)NC(=O)[C@H](CCC(=O)O)NC(=O)[C@H](CCCCN)NC(=O)[C@H](CO)NC(=O)[C@H](CCCCN)NC(=O)[C@H](CCCNC(=N)N)NC(=O)[C@@H](N)Cc1ccccc1)C(=O)NCC(=O)N[C@@H](CCCCN)C(=O)N[C@@H](CCC(=O)O)C(=O)N[C@@H](Cc1ccccc1)C(=O)N[C@@H](CCCCN)C(=O)N[C@@H](CCCNC(=N)N)C(=O)N[C@H](C(=O)N[C@H](C(=O)N[C@@H](CCC(N)=O)C(=O)N[C@@H](CCCNC(=N)N)C(=O)N[C@H](C(=O)N[C@@H](CCCCN)C(=O)N[C@@H](CC(=O)O)C(=O)N[C@@H](Cc1ccccc1)C(=O)N[C@@H](CC(C)C)C(=O)N[C@@H](CCCNC(=N)N)C(=O)N[C@@H](CC(N)=O)C(=O)N[C@@H](CC(C)C)C(=O)N[C@H](C(=O)O)C(C)C)[C@@H](C)CC)C(C)C)[C@@H](C)CC (racemic) [DL-37] |  |  | could not inhibit EV71 infection | only showed inhibition at a much higher concentration | over 50 μM |  | little antiviral activity |
